Values of other authors as cited in patent US20210169075A1, “ANTIBIOFILM FORMULATIONS AND METHODS FOR MICROBIAL DECONTAMINATION” (priority 2019, published 2021).
Values after ≈ are worked out from the molar mass of the structure shown.

Conditions: aqueous

- solubility concentration: 4.09 µg/mL (≈ 30 µM)
Compound: C=CC(=C)CCC=C(C)C [Myrcene, myrcene]
